Source: ChEMBL document CHEMBL4428056 (J Med Chem, 2016)
The source made the active and inactive calls. No cut-off for these calls is given here.

How the values were obtained:
Galectin-3 [1] = molecular target: Galectin-3 (Homo sapiens, UniProt P17931, R186S); assay: (§1) Competitive binding affinity to recombinant human galectin-3 R186S mutant after 5 mins in presence of fluorescent probe 2-(fluorescein-5/6-yl-carbonyl)-aminoethyl 2-acetamido-2-deoxy-alpha-D-galactopyranosyl-(1-3)-[alpha-L-fucopyranosyl-(1-2)]-beta-D-galactopyranosyl-(1-4)-beta-D-glucopyranoside by fluorescence polarization assay
Sequence of Galectin-3 (Homo sapiens, UniProt P17931, R186S) (P17931 2-250 R186S limits assumed): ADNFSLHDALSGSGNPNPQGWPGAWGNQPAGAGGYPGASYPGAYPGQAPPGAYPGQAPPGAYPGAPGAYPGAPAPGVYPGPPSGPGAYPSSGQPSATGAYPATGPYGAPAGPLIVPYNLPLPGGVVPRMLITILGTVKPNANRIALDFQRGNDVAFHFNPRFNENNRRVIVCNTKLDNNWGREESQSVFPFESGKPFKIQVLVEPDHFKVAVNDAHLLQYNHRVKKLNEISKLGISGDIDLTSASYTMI

Galectin-3 [2] = molecular target: Galectin-3 (Homo sapiens, UniProt P17931, K176L); assay: (§2) Competitive binding affinity to recombinant human galectin-3 K176L mutant after 5 mins in presence of fluorescent probe beta-D-galactopyranosyl(1-4)-2-acetamido-2-deoxy-beta-D-glucopyranosyl(1-3)-beta-D-galactopyranosyl(1-4)-(N1-fluorescein-5-yl-carbonylaminomethylcarbonyl)-beta-D-glucopyranosylamine by fluorescence polarization assay
Sequence of Galectin-3 (Homo sapiens, UniProt P17931, K176L) (P17931 2-250 K176L limits assumed): as the sequence (P17931 2-250 R186S limits assumed) above, with K175L, S185R counted along it

Galectin-7 = molecular target: T1, Galectin-7 (Mus musculus, UniProt O54974); assay: Competitive binding affinity to recombinant mouse galectin-7 after 5 mins in presence of fluorescent probe beta-D-galactopyranosyl(1-4)-2- acetamido-2-deoxy-beta-D-glucopyranosyl(1-3)-beta-D-galactopyranosyl(1-4)-(N1-fluorescein-5-yl-carbonylaminomethylcarbonyl)-beta-D-glucopyranosylamine by fluorescence polarization assay
T1 sequence (O54974 whole entry): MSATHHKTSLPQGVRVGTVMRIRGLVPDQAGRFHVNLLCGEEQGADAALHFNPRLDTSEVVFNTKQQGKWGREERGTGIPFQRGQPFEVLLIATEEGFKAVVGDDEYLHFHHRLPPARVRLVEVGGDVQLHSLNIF

Galectin-4 [3] = molecular target: T2, Galectin-4 (Homo sapiens, UniProt P56470); assay: as §1, with “galectin-4 C-terminal” for “galectin-3 R186S mutant”
T2 sequence (P56470 whole entry): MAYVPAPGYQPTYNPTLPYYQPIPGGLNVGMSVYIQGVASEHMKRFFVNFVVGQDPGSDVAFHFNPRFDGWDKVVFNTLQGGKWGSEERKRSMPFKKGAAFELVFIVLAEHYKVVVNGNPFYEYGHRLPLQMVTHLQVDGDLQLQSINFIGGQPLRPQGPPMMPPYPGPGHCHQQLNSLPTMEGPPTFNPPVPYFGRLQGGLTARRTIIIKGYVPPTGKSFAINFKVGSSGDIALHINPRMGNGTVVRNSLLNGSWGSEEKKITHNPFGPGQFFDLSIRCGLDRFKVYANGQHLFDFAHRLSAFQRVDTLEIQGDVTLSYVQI

Galectin-1 = Galectin-1 (Homo sapiens, UniProt P09382); assay: (§3) Competitive binding affinity to recombinant human galectin-1 after 5 mins in presence of fluorescent probe 3,3'-dideoxy-3-[4-(fluorescein-5-yl-carbonylaminomethyl)-1H-1,2,3-triazol-1-yl]-3'-(3,5-dimethoxy-benzamido)-1,1'-sulfanediyl-di-beta-D-galactopyranoside by fluorescence polarization assay
Sequence of Galectin-1 (P09382 whole entry): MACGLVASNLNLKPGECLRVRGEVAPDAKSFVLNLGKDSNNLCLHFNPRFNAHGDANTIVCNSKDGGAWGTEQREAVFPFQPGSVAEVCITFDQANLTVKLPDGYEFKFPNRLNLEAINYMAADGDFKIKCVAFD

Mus musculus [4] = assay: Anti-fibrotic activity in C57/Bl6 mouse assessed as reduction in bleomycin-induced galectin-3 levels in serum at 0.35 to 3.5 mg/kg administered intratracheally as 4 doses every 48 hrs commencing on day 18 of bleomycin induction measured on day 26 post last dose by ELISA; assay type: functional, organism-based
Galectin-3 [5] = molecular target: Galectin-3 (Homo sapiens, UniProt P17931, R144S); assay: as §1, with “R144S” for “R186S”
Sequence of Galectin-3 (Homo sapiens, UniProt P17931, R144S) (P17931 2-250 R144S limits assumed): as the sequence (P17931 2-250 R186S limits assumed) above, with R143S, S185R counted along it

Mus musculus [6] = assay: Anti-fibrotic activity in C57/Bl6 mouse assessed as reduction in bleomycin-induced galectin-3 levels in bronchoalveolar lavage fluid at 3.5 mg/kg administered intratracheally as 4 doses every 48 hrs commencing on day 18 of bleomycin induction measured on day 26 post last dose by ELISA; assay type: functional; parameters: scale not given: the % may be the effect or the level left
Galectin-9 [7] = molecular target: T3, Galectin-9 (Homo sapiens, UniProt O00182); assay: Competitive binding affinity to recombinant human galectin-9 N-terminal after 5 mins in presence of fluorescent probe 2-(fluorescein-5-yl-carbonylamino)ethyl-beta-D-galactopyranosyl(1-4)-2-acetamido-2-deoxy-beta-D-glucopyranosyl(1-3)-beta-D-galactopyranosyl(1-4)-beta-D-glucopyranoside by fluorescence polarization assay
T3 sequence (O00182 whole entry): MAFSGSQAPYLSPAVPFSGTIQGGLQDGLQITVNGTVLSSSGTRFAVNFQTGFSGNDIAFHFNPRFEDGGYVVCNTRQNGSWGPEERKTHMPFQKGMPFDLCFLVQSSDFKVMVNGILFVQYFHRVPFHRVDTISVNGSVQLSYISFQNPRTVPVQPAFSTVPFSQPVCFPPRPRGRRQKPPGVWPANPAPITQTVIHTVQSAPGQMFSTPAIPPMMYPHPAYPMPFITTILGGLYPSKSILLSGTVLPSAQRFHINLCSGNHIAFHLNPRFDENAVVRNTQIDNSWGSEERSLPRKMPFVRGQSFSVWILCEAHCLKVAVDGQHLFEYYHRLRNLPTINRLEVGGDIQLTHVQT

Mus musculus [8] = assay: Effect on inflammatory response in C57/Bl6 mouse assessed as change in bleomycin-induced total cell counts in bronchoalveolar lavage fluid at 0.35 to 3.5 mg/kg administered intratracheally as 4 doses every 48 hrs commencing on day 18 of bleomycin induction measured on day 26 post last dose; assay type: functional, organism-based
Mus musculus [9] = assay: (§4) Anti-fibrotic activity in C57/Bl6 mouse bleomycin-induced lung fibrosis model assessed as reduction in fibrosis score at 3.5 mg/kg administered intratracheally as 4 doses every 48 hrs commencing on day 18 of bleomycin induction measured on day 26 post last dose by Masson's trichrome staining based assay relative to control; assay type: functional, organism-based
Mus musculus [10] = assay: Effect on inflammatory response in C57/Bl6 mouse assessed as change in bleomycin-induced total protein levels in bronchoalveolar lavage fluid at 0.35 to 3.5 mg/kg administered intratracheally as 4 doses every 48 hrs commencing on day 18 of bleomycin induction measured on day 26 post last dose; assay type: functional, organism-based
Galectin-2 = molecular target: T4, Galectin-2 (Homo sapiens, UniProt P05162); assay: Competitive binding affinity to recombinant human galectin-2 after 5 mins in presence of fluorescent probe ,[…]-3-[4-(fluorescein-5-yl-carbonylaminomethyl)-1H-1,2,3-triazol-1-yl]-3'-(3,5-dimethoxy-benzamido)-1,1'-sulfanediyl-di-beta-D-galactopyranoside by fluorescence polarization assay
T4 sequence (P05162 whole entry): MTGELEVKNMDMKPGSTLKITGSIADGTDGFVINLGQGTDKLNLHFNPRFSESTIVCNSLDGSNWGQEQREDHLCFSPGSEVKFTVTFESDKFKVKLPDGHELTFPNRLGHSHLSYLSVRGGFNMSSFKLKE

[11] = Solubility of the compound in DMSO at 100 mM; assay type: physicochemical; conditions: 100000 µM
Mus musculus [12] = assay: Effect on inflammatory score in bleomycin-induced C57/Bl6 mouse at 1 to 3.5 mg/kg administered intratracheally as 4 doses every 48 hrs commencing on day 18 of bleomycin induction measured on day 26 post last dose by Masson's trichrome staining based assay; assay type: functional, organism-based
Mus musculus [13] = assay: Anti-fibrotic activity in C57/Bl6 mouse bleomycin-induced lung fibrosis model assessed as reduction in total lung collagen levels at 3.5 mg/kg administered intratracheally as 4 doses every 48 hrs commencing on day 18 of bleomycin induction measured on day 26 post last dose relative to control; assay type: functional; parameters: scale not given: the % may be the effect or the level left
Mus musculus [14] = assay: Anti-fibrotic activity in C57/Bl6 mouse bleomycin-induced lung fibrosis model assessed as reduction in total lung collagen levels at 0.35 to 1 mg/kg administered intratracheally as 4 doses every 48 hrs commencing on day 18 of bleomycin induction measured on day 26 post last dose; assay type: functional, organism-based
Galectin-4 [15] = molecular target: T2, Galectin-4; assay: as §3, with “galectin-4 N-terminal” for “galectin-1”
Mus musculus [16] = assay: Anti-fibrotic activity in C57/Bl6 mouse assessed as reduction in bleomycin-induced galectin-3 levels in bronchoalveolar lavage fluid at 0.35 mg/kg administered intratracheally as 4 doses every 48 hrs commencing on day 18 of bleomycin induction measured on day 26 post last dose by ELISA; assay type: functional; parameters: scale not given: the % may be the effect or the level left
Mus musculus [17] = assay: as §4, with “0.35 to 1” for “3.5”; assay type: functional, organism-based
Galectin-3 [18] = molecular target: Galectin-3 (Homo sapiens, UniProt P17931); assay: Competitive binding affinity to recombinant human galectin-3 after 5 mins in presence of fluorescent probe by fluorescence polarization assay
Sequence of Galectin-3 (Homo sapiens, UniProt P17931) (P17931 whole entry): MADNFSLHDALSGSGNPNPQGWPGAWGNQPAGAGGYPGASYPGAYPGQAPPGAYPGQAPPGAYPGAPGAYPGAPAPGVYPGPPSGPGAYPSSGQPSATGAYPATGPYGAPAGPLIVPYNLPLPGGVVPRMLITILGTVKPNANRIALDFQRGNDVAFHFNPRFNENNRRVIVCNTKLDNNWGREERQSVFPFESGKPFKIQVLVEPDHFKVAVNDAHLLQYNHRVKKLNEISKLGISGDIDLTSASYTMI

Galectin-3 [19] = molecular target: Galectin-3 (Homo sapiens, UniProt P17931, R186K); assay: as §2, with “R186K” for “K176L”
Sequence of Galectin-3 (Homo sapiens, UniProt P17931, R186K) (P17931 2-250 R186K limits assumed): as the sequence (P17931 2-250 R186S limits assumed) above, with S185K counted along it

Galectin-3 [20] = molecular target: Galectin-3 (Homo sapiens, UniProt P17931, R144K); assay: as §1, with “R144K” for “R186S”
Sequence of Galectin-3 (Homo sapiens, UniProt P17931, R144K) (P17931 2-250 R144K limits assumed): as the sequence (P17931 2-250 R186S limits assumed) above, with R143K, S185R counted along it

Galectin-9 [21] = molecular target: T3, Galectin-9; assay: as §3, with “galectin-9 C-terminal” for “galectin-1”
Galectin-8 = molecular target: T5, Galectin-8 (Homo sapiens, UniProt O00214); assay: Competitive binding affinity to recombinant human galectin-8 N-terminal after 5 mins in presence of fluorescent probe 2-(fluorescein-5-yl-carbonylamino)ethyl beta-D-galactopyranosyl(1-4)-2-acetamido-2-deoxy-beta-D-glucopyranosyl(1-3)-beta-D-galactopyranosyl(1-4)-beta-D-glucopyranoside by fluorescence polarization assay
T5 sequence (O00214 whole entry): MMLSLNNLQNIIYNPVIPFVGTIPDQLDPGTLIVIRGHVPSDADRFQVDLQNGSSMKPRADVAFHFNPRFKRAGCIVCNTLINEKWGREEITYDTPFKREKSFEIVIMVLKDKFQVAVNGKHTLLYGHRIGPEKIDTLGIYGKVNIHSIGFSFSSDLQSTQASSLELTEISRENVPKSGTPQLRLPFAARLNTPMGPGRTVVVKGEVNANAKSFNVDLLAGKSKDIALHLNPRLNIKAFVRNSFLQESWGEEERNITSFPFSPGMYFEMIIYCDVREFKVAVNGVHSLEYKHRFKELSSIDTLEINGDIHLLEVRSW

Kd (Galectin-7)	Kd (Galectin-4 [3])	Kd (Galectin-1)	Kd (Galectin-9 [7])	solubility [11]	Kd (Galectin-4 [15])	Kd (Galectin-3 [18])	Kd (Galectin-8)	Structure (SMILES)	also measured
5 µM	210 µM	16 µM	1.6 µM	Soluble	41 µM	0.091 µM		O=c1oc2ccccc2cc1CO[C@H]1[C@@H](O)[C@@H](CO)O[C@@H](S[C@@H]2O[C@H](CO)[C@H](O)[C@H](OCc3cc4ccccc4oc3=O)[C@H]2O)[C@@H]1O	Kd (Galectin-3 [1]): 50 µM; Kd (Galectin-3 [2]): 0.27 µM; Activity (Mus musculus [4]): Active; Kd (Galectin-3 [5]): 6.1 µM; Activity (Mus musculus [6]): 66%; Activity (Mus musculus [8]): inactive; Activity (Mus musculus [9]): Active; Activity (Mus musculus [10]): inactive; Kd (Galectin-2): 6.9 µM; Activity (Mus musculus [12]): inactive; Activity (Mus musculus [13]): 58%; Activity (Mus musculus [14]): inactive; Activity (Mus musculus [16]): 49%; Activity (Mus musculus [17]): inactive; Kd (Galectin-3 [19]): 110 µM; Kd (Galectin-3 [20]): 3 µM
34 µM	> 500 µM		8.3 µM	Soluble	140 µM	0.19 µM	84 µM	COc1ccc2cc(CO[C@H]3[C@@H](O)[C@@H](CO)O[C@@H](S[C@@H]4O[C@H](CO)[C@H](O)[C@H](OCc5cc6ccc(OC)cc6oc5=O)[C@H]4O)[C@@H]3O)c(=O)oc2c1	Kd (Galectin-9 [21]): 45 µM
60 µM		21 µM	140 µM	Soluble		1.4 µM	71 µM	O=c1oc2ccc(Cl)cc2cc1CO[C@H]1[C@@H](O)[C@@H](CO)O[C@@H](S[C@@H]2O[C@H](CO)[C@H](O)[C@H](OCc3cc4cc(Cl)ccc4oc3=O)[C@H]2O)[C@@H]1O	
1.7 µM						0.16 µM		O=C(N[C@H]1[C@@H](O)[C@@H](CO)O[C@@H](S[C@@H]2O[C@H](CO)[C@H](O)[C@H](NC(=O)c3ccc4ccccc4c3)[C@H]2O)[C@@H]1O)c1ccc2ccccc2c1	
